{"source": "PubChem BioAssay (NCI)", "tested_on": "P388 leukemia", "assay": "NCI tumour cell line growth inhibition, 48 h", "note": "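How tested: cells in 96-well plates exposed to compound for 48 hours at five concentrations. Definition used: TGI = concentration required for complete inhibition of growth.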", "data": [{"compound": "CC1[C@@H]2CC=C3[C@H]4CCC5Cc6nc7c(nc6C[C@@]5(C)C4CC(=O)[C@]32CO[C@]12OC(C)(C)CC2O)CC1CC[C@@H]2C3=C[C@H]4O[C@@]5(O[C@@](C)(CO)C[C@@H]5O)C(C)[C@@]4(O)[C@]3(C)[C@@H](O)CC2[C@]1(C)C7", "note": "(stereo partly specified)", "values": [{"measurement": "TGI", "value": 0.638, "unit": "nM"}]}]}
